In patent US10426751B2, “Allosteric activators for treatment of phenylketonuria” (MCMASTER UNIVERSITY, priority 2015, dated 2019):
pKi: −log10 of the molar value.

Assays:
[1] = biological target: T1, WT-PAH (Homo sapiens, UniProt P00439); experiment: Primary screen (READ): ligand-induced stabilization of PAH activity in 8 M urea, Tyr formation by CE-UV; assay type: biochemical; settings: 8 M urea, ligand 20 μM; ligand-free enzyme (7±0.5) %
T1 construct: made in house; the paragraph itself says 'eukaryotic cell cultures' (pMAL vector, Martinez laboratory, University of Bergen)
T1 sequence (P00439 1-452): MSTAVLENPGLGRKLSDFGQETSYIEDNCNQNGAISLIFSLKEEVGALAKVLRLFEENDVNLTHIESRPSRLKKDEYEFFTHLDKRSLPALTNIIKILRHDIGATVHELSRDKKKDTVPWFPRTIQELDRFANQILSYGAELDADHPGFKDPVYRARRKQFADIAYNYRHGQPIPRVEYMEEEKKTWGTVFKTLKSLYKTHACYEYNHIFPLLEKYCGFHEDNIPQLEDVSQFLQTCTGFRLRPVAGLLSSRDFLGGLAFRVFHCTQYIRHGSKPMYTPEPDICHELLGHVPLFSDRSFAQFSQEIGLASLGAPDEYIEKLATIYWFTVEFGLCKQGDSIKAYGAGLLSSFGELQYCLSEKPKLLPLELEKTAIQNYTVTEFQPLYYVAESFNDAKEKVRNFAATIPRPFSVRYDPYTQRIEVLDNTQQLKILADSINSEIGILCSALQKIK
Protocol: Tetrameric human phenylalanine hydroxylase (PAH) enzyme kinetic assays were performed off-line under standardized conditions prior to quantification of Tyr formation by CE with UV detection. Enzyme assays were performed by first mixing together Phe (1 mM), catalase (100 nM) and PAH (0.25 μM/subunit) in a reaction buffer (20 mM HEPES and 200 mM NaCl, pH 7.0) that were equilibrated at 25° C. for 4 min. Then, ferrous (Fe^2+) ammonium sulfate (100 μM) was added to the solution for 1 min and the reaction was subsequently initiated by addition of BH4 ([…]) with DTT (5 mM) using a total volume of 100 μL. The reaction mixture was then vortexed for 60 s followed by sonication for 2 min prior to centrifugation for 10 s at 4 g and storage in a refrigerator (+4° C.). An aliquot (20 μL) was withdrawn from the quenched enzyme reaction and placed in a micro vial containing Me-Tyr as IS (100 μM) prior to CE analysis. The stability of the quenched enzyme reaction was confirmed by intermittent analysis of PAH activity over 6 h at room temperature, and no significant changes in the Tyr/IS or Phe/Tyr response ratio were measured. Enzymatic reactions were performed for both WT-PAH and two PAH mutants by pre-equilibrating each ligand for 10 min prior to addition of ferrous ion and BH4/DDT as described in enzyme reaction protocol in order to assess for ligand-induced PAH inhibition or activation.
Unlike thermal stability assays that can induce protein aggregation, chemical denaturants are more suitable as perturbants to promote unfolding and enzyme inactivation while solubilizing multimeric proteins. In this context, restoration of enzyme activity upon denaturation (READ) was first introduced to characterize PCs that stabilize yet enhance the activity of a lysosomal enzyme, β-glucocerebrosidase (GCase). Herein, READ was modified, further optimized and validated for primary screening of PCs for the cytosolic enzyme (PAH) using a chemical library containing structurally unique compounds with drug-like activity. For instance, the primary screen was used to measure ligand-induced stabilization of PAH by extrinsic small molecules that impart greater resistance to urea unfolding as compared to ligand-free apo-enzyme conditions. PAH activity was first examined as a function of urea concentration (0 to 8 M) and pre-equilibration time (10 min to 2 hr) in order to determine optimum conditions where residual enzyme activity was largely attenuated below 10% due to protein unfolding. Protein unfolding was performed in triplicate offline with the enzyme reaction buffer (20 mM HEPES and 200 mM NaCl, pH 7.0) using tetrameric human PAH (1 μM and/or 0.1 μM) or mutant PAH (1 μM and/or 0.1 μM) incubated 10 min in 0 M or 8 M urea in the presence or absence of ligand (20 μM). Dose-response studies (0, 2.0 and 20 μM) were subsequently performed in triplicate on screen-positive compounds using re-synthesized ligands in order to further validate initial screen results. In all cases, quenched enzyme reactions were processed as described previously prior to CE analysis. PAH activity measurements based on Tyr formation at 8M urea with the presence or absence of PC were normalized to 0 M urea for each aliquot enzyme reaction to minimize long-term variation, which also enables direct comparison of the ligand-induced stabilization activity under denaturing conditions (8M urea) while confirming inhibition and activation effects for ligands under native conditions (0 M urea).

[2] = biological target: T2, PAH (Mus musculus, UniProt P16331); settings: cited from earlier work
T2 construct: inducing a 2-fold enhancement in PAH activity in WT mouse liver; host or cells: liver of WT mice
T2 sequence (P16331 1-453): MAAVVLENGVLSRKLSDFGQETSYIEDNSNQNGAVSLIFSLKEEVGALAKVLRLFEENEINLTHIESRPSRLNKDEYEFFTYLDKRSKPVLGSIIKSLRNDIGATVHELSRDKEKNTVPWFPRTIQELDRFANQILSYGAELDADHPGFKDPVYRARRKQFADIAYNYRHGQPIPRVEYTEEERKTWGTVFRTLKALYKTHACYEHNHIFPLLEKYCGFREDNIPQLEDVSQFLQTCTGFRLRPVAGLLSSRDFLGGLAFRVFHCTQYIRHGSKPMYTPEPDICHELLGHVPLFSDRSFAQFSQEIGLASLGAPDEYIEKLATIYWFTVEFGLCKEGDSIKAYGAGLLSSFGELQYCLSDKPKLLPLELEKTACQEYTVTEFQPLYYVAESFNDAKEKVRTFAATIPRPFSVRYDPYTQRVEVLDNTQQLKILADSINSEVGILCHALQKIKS

[3] = biological target: T3, PAH (Homo sapiens, UniProt P00439); settings: read-out: Ki (weak competitive inhibitor to PAH); cited from earlier work
T3 sequence (P00439 1-452): T1 sequence (P00439 1-452)

SMILES | PAH residual activity (% of WT-PAH) [1] [%] | enhancement in PAH activity in WT mouse liver [2] [fold] | pKi [3]
Nc1c(-c2ccc3ccccc3n2)c2ccc([N+](=O)[O-])cc2c(=O)n1Cc1ccccc1 [compound III, 3-amino-2-benzyl-7-nitro-4-(2-quinolyl)-1,2-dihydroisoquinolin-1-one] | 19 | 2 | 
Cc1ccnc(-n2c(=S)[nH]c3sc(C)c(C)c3c2=O)c1 [compound IV, 5,6-dimethyl-3-(4-methyl-2-pyridinyl)-2-thioxo-2,3-dihydrothieno[2,3-d] pyrimidin-4(1H)-one] | 9 | 2 | 3.70
